{"source": "patent US20260176393A1", "about": "“PRESERVATIVE COMPOSITION FOR BIOLOGICAL SAMPLES” (KANAZAWA UNIVERSITY, priority 2022, published 2026)", "key": {"mouse fibroblasts (mNF)": {"tested_on": "mouse fibroblasts (mNF)", "experiment": "Cryopreservation test, survival rate of mNF cells", "type": "cell-based", "settings": "10 wt % in Water; after cryopreservation", "procedure": "In the case of adherent cells, the cells to be frozen were treated with trypsin and recovered by centrifugation. In the case of floating cells, the cells to be frozen were recovered by centrifugation. The cells of each type were diluted with Dulbecco's modified Eagle medium (DMEM), and the cell concentration was measured. In the present specification, the DMEM solution is also simply referred to as a medium. […] Frosty®. In the present Examples, the commercially available cryopreservative solution used was CultureSure® (manufactured by FUJIFILM Wako Pure Chemical Corp.) unless otherwise specified. The cryopreservation time was set to 48 hours. Then, the cells were thawed at a tube temperature of 37° C. and used in live cell counting. The cells were thawed by the addition of 1 mL of a medium to the cryopreservation vial at 37° C. and centrifuged to remove a supernatant. The cells thus obtained by centrifugation were resuspended in a medium, followed by live cell counting."}, "[1]": {"tested_on": "Human kidney cells (BOSC)", "experiment": "Cryopreservation test, survival rate of BOSC cells", "type": "cell-based", "settings": "10 wt % in Water; after cryopreservation", "procedure": "In the case of adherent cells, the cells to be frozen were treated with trypsin and recovered by centrifugation. In the case of floating cells, the cells to be frozen were recovered by centrifugation. The cells of each type were diluted with Dulbecco's modified Eagle medium (DMEM), and the cell concentration was measured. In the present specification, the DMEM solution is also simply referred to as a medium.\nSubsequently, each dilution was dispensed at 1 mL/tube to 1.5 mL tubes, and the cells were suspended in a cryopreservative solution containing 100 μL of a zwitterion polymer solution and frozen at a cooling temperature of −85° C. and a cooling rate of −1° C./min by a cell freezing container Mr. Frosty®. In the present Examples, the commercially available cryopreservative solution used was CultureSure® (manufactured by FUJIFILM Wako Pure Chemical Corp.) unless otherwise specified. The cryopreservation time was set to 48 hours. Then, the cells were thawed at a tube temperature of 37° C. and used in live cell counting.\nThe cells were thawed by the addition of 1 mL of a medium to the cryopreservation vial at 37° C. and centrifuged to remove a supernatant. The cells thus obtained by centrifugation were resuspended in a medium, followed by live cell counting."}, "[2]": {"experiment": "Osmotic pressure, vapor pressure-type osmometer", "type": "physicochemical", "settings": "10 wt % in Water", "procedure": "A vapor pressure-type osmometer (VAPRO 5600; Wescor, Inc., Logan, UT, USA) was used, and an osmotic pressure was measured in a 10 mL standard chamber (room temperature: 25° C., apparatus sensor temperature: 33° C., sample volume: 10 μL)."}}}
{"smiles": "C=Cn1cc[n+](CCCC(=O)[O-])c1", "note": "[VimC3C]", "values": [{"measurement": "Survival rate (mNF)", "setting": "mouse fibroblasts (mNF)", "result": 0.42}, {"measurement": "Survival rate (BOSC)", "setting": "[1]", "result": 0.15}, {"measurement": "Osmotic pressure", "setting": "[2]", "result": 860, "unit": "mOsm/kg"}]}
